# Patent publication US10568975B2, “Nanoparticles for magnetic resonance imaging tracking and methods of making and using thereof” (The Johns Hopkins University, priority 2013, dated 2020)
# Experiment: CEST contrast of surface-conjugated polymeric nanoparticles and DYD peptide
# Format: physicochemical
# Protocol: Polymeric particle preparation: The peptide contrast agent, propargylglycine-W-(DYD)6-NH2, was synthesized on a microwave-assisted peptide synthesizer Libertyl (CEM, USA). The CEST nanoparticles were then prepared by standard coupling chemistry. NH2PEG-N3 was coupled to carboxylates on the surface of polystyrene (PS) particles in the presence of EDC and NHS in 200 mM sodium borate buffer pH 7.8 at RT. Propargylglycine-W-(DYD)6-NH2 peptide was coupled with PS-PEG-N3 in the presence of catalytic amount of CuAcAc, TBTA, and excess ascorbic acid in sodium phosphate buffer pH 7, under nitrogen, using click chemistry. Biodegradable CEST nanoparticles based on the polymer of poly(lactic-co-glycolic) acid-co-PEG (PLGA-PEG) were synthesized using a similar procedure and formulated using a oil-in-water emulsion method.
# The nanoparticles are suitable for tumor delivery. As the interior of the nanoparticles has reduced water accessibility compared to liposomes, the CEST agent was conjugated to the surface of the particle as shown in FIGS. 5(a) through 5(c). Two versions were prepared, one with a short (0.6 kDa) and a second with a longer PEG spacer (5.6 kDa). […] The DYD peptide provides contrast centered around 2.5 ppm from water, which should allow discrimination with the BA liposomes through multi-color CEST imaging.
substance,measurement,value
propargylglycine-W-(DYD)6-NH2 [DYD peptide],"CEST contrast centre, offset from water",around 2.5 ppm
